Experiment: Henry solubility constant Hcp at 313 K (mol/(m3 Pa))
Settings: reference: Du et al. (2017)

Row | SMILES | Henry solubility constant Hcp at 313 K
1 | Cc1nccn1C [1,2-dimethylimidazole] | 43
2 | OCCN1CCCCC1 [1-(2-hydroxyethyl)piperidine] | 51
3 | Cn1ccnc1 [1-methyl-1H-imidazole] | 69
4 | CCN(CC)CCO [2-(diethylamino)ethanol] | 5.9
5 | CC(C)NCCO [2-(isopropylamino)ethanol] | 110
6 | CCC(N)(CO)CO [2-amino-2-ethyl-1,3-propanediol] | 710
7 | CC(C)(N)CO [2-amino-2-methyl-1-propanol] | 210
8 | CCc1ncc(C)[nH]1 [2-ethyl-4-methylimidazole] | 280
9 | CCc1ncc[nH]1 [2-ethylimidazole] | 760
10 | Cc1ncc[nH]1 [2-methyl-1H-imidazole] | 810
11 | OCCC1CCCCN1 (stereo not given) [2-piperidineethanol] | 390
12 | NCc1cccnc1 [3-(aminomethyl)pyridine] | 430
13 | CCN(CC)CC(O)CO (stereo not given) [3-(diethylamino)-1,2-propanediol] | 540
14 | CN(C)CC(O)CO (stereo not given) [3-(dimethylamino)-1,2-propanediol] | 670
15 | COCCCN [3-methoxy-1-propanamine] | 21
16 | CN1CCC(O)CC1 [4-hydroxy-N-methylpiperidine] | 1300
17 | CN(CCO)CCO [N-methyldiethanolamine] | 3300
18 | COCCNCCOC [bis(2-methoxyethyl)amine] | 110
19 | CN(C)CCOCCO [dimethylaminoethoxyethanol] | 830
20 | CN1C2CCC1CC(O)C2 (stereo not given) [tropine] | 1300
